The target in test [1] is Human recombinant Acetyl-CoA Carboxylase 1 (ACC1) (Homo sapiens, UniProt Q13085). Nature of the test: Assay Y: ACC1 inhibition, inorganic phosphate (Malachite Green). In kind it is biochemical. The conditions noted are these: Assay Y: room temperature, 3 hr, 15 min preincubation. As for the experimental part: (§1) Preincubation of 6 μL enzyme together with 0.3 μL compound for 15 min was done before the reaction was initiated by the addition of 4 μL substrate. […] After 3 hr the reaction was stopped by addition of 60 μL of water followed by 30 μL Malachite Green solution. The Malachite Green solution was prepared by mixing 16.4 mL ammonium molybdate solution (7.5%), 1.64 mL Tween (11%) with 82 mL Malachite Green/H2SO4-solution (0.7 g Malachite Green to 1000 mL of 10% (v/v) H2SO4). Plates were left for 10 min at room temperature before reading the absorbance at 670 nm. All compounds were tested in triplicate at 10 different concentrations. Control compound (0, 50 and 100% effect) was included on each plate. […] An IC50 value was derived by non-linear regression curve fitting using the following equation: […]))) where A is the non-specific binding, B is the total binding, C is the IC50 and D is the slope. Saturation binding Kd and Bmax were derived using the equation y=((B1 max*x)/(Kd+x)).

Test [2] addresses Human recombinant Acetyl-CoA Carboxylase 2 (ACC2) (Homo sapiens, UniProt O00763). Nature of the test: Assay Y: ACC2 inhibition, inorganic phosphate (Malachite Green). In kind it is biochemical. The conditions noted are these: Assay Y: room temperature, 3 hr, 15 min preincubation. As for the experimental part: as §1

pIC50: −log10 of the molar value.

Usually pIC50 stands for −log10 of the IC50, conventionally taken in molar units.

Human recombinant Acetyl-CoA Carboxylase 2 (ACC2), sequence (O00763 whole entry): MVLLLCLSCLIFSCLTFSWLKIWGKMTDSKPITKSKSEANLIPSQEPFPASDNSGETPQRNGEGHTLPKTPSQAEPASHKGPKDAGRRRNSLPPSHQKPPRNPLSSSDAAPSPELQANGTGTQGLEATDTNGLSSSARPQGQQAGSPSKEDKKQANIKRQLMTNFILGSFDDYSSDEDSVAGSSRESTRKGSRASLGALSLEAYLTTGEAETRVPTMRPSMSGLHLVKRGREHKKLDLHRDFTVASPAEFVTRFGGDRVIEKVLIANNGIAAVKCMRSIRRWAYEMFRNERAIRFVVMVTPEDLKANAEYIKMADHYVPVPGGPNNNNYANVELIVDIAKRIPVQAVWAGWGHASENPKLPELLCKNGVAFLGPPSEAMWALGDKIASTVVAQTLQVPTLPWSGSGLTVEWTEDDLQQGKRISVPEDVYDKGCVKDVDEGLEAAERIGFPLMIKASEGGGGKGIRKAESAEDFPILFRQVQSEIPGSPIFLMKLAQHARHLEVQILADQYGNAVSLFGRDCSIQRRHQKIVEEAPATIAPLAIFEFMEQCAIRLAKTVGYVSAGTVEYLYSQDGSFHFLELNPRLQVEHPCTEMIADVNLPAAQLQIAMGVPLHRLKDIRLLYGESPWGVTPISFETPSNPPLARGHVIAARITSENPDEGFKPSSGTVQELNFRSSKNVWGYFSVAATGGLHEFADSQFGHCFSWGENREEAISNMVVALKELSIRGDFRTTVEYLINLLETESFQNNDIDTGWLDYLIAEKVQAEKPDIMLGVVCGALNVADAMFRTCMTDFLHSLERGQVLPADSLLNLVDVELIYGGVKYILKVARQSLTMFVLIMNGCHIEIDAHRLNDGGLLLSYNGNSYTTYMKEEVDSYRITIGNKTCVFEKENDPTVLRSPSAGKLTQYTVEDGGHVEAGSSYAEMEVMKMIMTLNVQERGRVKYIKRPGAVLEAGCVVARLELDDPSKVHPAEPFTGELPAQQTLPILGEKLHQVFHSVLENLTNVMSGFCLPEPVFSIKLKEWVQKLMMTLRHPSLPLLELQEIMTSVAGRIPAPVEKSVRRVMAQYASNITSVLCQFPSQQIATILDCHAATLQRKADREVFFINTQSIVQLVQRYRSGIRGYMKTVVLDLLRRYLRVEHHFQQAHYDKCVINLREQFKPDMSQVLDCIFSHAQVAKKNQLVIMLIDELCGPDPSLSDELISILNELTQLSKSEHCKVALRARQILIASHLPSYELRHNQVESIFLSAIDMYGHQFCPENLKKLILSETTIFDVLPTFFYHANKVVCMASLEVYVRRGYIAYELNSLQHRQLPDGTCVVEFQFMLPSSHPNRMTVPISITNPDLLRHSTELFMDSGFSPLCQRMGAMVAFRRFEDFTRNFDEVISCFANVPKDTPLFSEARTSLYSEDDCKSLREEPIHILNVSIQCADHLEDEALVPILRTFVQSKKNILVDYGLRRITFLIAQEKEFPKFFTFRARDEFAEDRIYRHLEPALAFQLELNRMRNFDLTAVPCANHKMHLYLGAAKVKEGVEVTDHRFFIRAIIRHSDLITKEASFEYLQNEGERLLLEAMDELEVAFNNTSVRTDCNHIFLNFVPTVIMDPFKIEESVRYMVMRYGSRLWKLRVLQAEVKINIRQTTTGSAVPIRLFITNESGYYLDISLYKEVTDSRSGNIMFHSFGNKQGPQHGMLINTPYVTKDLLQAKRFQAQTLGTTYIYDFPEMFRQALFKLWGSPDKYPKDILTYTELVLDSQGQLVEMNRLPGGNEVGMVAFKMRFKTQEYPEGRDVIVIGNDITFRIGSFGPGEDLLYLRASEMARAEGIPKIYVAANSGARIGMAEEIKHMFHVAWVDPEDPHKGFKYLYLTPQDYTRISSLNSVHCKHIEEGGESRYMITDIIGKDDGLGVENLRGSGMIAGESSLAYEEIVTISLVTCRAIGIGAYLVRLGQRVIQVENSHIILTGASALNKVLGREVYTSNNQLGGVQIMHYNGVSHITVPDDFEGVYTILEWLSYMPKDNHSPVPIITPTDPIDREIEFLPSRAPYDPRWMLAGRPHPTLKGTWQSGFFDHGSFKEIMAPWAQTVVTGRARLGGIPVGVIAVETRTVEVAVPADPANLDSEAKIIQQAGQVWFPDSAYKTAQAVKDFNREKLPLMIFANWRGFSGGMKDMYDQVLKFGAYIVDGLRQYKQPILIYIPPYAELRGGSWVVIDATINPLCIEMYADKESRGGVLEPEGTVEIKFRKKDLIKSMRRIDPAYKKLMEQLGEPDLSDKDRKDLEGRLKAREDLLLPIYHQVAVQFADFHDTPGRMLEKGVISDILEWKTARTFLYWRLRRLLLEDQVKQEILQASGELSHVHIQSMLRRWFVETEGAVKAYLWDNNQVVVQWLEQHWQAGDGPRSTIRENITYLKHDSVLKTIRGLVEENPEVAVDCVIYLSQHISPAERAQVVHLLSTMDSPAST

On to `CCOc1ccc(-c2cc(C(=O)NC[C@H]3CC[C@H](CNC(=O)OC(C)(C)C)CC3)ccn2)cn1` [Example 46, tert-Butyl {[trans-4-({[(6′-ethoxy-2,3′-bipyridin-4-yl)carbonyl]amino}methyl)cyclohexyl]methyl}carbamate], for which the negative-log IC50 (pIC50) was under 4.70 in test [1] and 5.02 in test [2].

Turning to `COc1ccc(-c2cc(C(=O)NC[C@H]3CC[C@H](CNC(=O)OC(C)(C)C)CC3)ccn2)c(OC)c1` [Example 47, tert-Butyl {[trans-4-({[2-(2,4-dimethoxyphenyl)isonicotinoyl]amino}methyl)cyclohexyl]methyl}carbamate], the pIC50 was 4.85 in test [1] and 5.01 in test [2].

For the molecule `COc1ccc(-c2cc(C(=O)NC[C@H]3CC[C@H](CNC(=O)OC(C)(C)C)CC3)ccn2)c(OC)n1` [Example 48, tert-Butyl {[trans-4-({[(2′,6′-dimethoxy-2,3′-bipyridin-4-yl)carbonyl]amino}methyl)-cyclohexyl]methyl}carbamate], the pIC50 is under 4.70 in test [1] and 5.01 in test [2].

For the molecule `COc1ccc(-c2cc(C(=O)NC[C@H]3CC[C@H](CNC(=O)OC(C)(C)C)CC3)ccn2)cn1` [Example 49, tert-Butyl {[trans-4-({[(6′-methoxy-2,3′-bipyridin-4-yl)carbonyl]amino}methyl)cyclohexyl]methyl}carbamate], the results for the negative-log IC50 (pIC50) in test [1] and in test [2] were 5.12 and 5.01, respectively.

On to `CC(C)(C)OC(=O)NC[C@H]1CC[C@H](CNC(=O)c2ccnc(-c3ccc(C(N)=O)cc3)c2)CC1` [Example 50, tert-Butyl {[trans-4-({[2-(4-carbamoylphenyl)isonicotinoyl]amino}methyl)cyclohexyl]-methyl}carbamate], for which the pIC50 in test [1] was 5.28; in test [2], 5.17.

As to `CC(C)(C)OC(=O)NC[C@H]1CC[C@H](CNC(=O)c2ccnc(-c3cccc(Cl)c3)c2)CC1` [Example 51, tert-Butyl {[trans-4-({[2-(3-chlorophenyl)isonicotinoyl]amino}methyl)cyclohexyl]-methyl}carbamate], the pIC50 in test [1] is under 4.70; in test [2], 5.25.

`CC(C)(C)OC(=O)NC[C@H]1CC[C@H](CNC(=O)c2ccnc(-c3ccc(CN)cc3)c2)CC1` [Example 52, tert-Butyl ({trans-4-[({2-[4-(aminomethyl)phenyl]isonicotinoyl}amino)methyl]cyclo-hexyl}methyl)carbamate]: the figures for the pIC50 in test [1] and in test [2] were 5.08 and 5.12, respectively.

For `CC(C)(C)OC(=O)NC[C@H]1CC[C@H](CNC(=O)c2ccnc(-c3ccc(F)c(F)c3)c2)CC1` [Example 53, tert-Butyl {[trans-4-({[2-(3,4-difluorophenyl)isonicotinoyl]amino}methyl)cyclohexyl]-methyl}carbamate], the values for the negative logarithm of the IC50 (pIC50) in test [1] and in test [2] were under 4.70 and 5.04, respectively.

In the case of `CCOC(=O)NC[C@H]1CC[C@H](CNS(=O)(=O)c2ccc3ccccc3c2)CC1` [Example 54, Ethyl [(trans-4-{[(2-naphthylsulfonyl)amino]methyl}cyclohexyl)methyl]carbamate], the results for the pIC50 in test [1] and in test [2] were under 4.70 and 5.40, respectively.

With `CC(C)(C)COC(=O)NC[C@H]1CC[C@H](CNC(=O)c2cc(-c3ccncc3)nc3ccccc23)CC1` [Example 55, 2,2-Dimethylpropyl {[trans-4-({[(2-pyridin-4-ylquinolin-4-yl)carbonyl]amino}methyl)-cyclohexyl]methyl}carbamate], the negative-log IC50 (pIC50) in test [1] was 5.89; in test [2], 6.55.

Regarding `O=C(NC[C@H]1CC[C@H](CNC(=O)c2cc(-c3ccncc3)nc3ccccc23)CC1)OC1CCCC1` [Example 56, Cyclopentyl {[trans-4-({[(2-pyridin-4-ylquinolin-4-yl)carbonyl]amino}methyl)cyclo-hexyl]methyl}carbamate], the pIC50 in test [1] was 5.92; in test [2], 6.40.

Turning to `CC(C)OC(=O)NC[C@H]1CC[C@H](CNC(=O)c2cc(-c3ccncc3)nc3ccccc23)CC1` [Example 57, Isopropyl {[trans-4-({[(2-pyridin-4-ylquinolin-4-yl)carbonyl]amino}methyl)cyclo-hexyl]methyl}carbamate], the negative-log IC50 (pIC50) in test [1] is 5.72; in test [2] it was 6.10.

As to `CCCOC(=O)NC[C@H]1CC[C@H](CNC(=O)c2cc(-c3ccncc3)nc3ccccc23)CC1` [Example 58, Propyl {[trans-4-({[(2-pyridin-4-ylquinolin-4-yl)carbonyl]amino}methyl)cyclohexyl]-methyl}carbamate], the negative logarithm of the IC50 (pIC50) in test [1] is 5.68; in test [2] it was 6.09.

`COCCOC(=O)NC[C@H]1CC[C@H](CNC(=O)c2cc(-c3ccncc3)nc3ccccc23)CC1` [Example 59, 2-Methoxyethyl {[trans-4-({[(2-pyridin-4-ylquinolin-4-yl)carbonyl]amino}-methyl)cyclohexyl]methyl}carbamate]: the pIC50 is under 4.70 in test [1] and 5.33 in test [2].

In the case of `CCOC(=O)NC[C@H]1CC[C@H](CNC(=O)c2cc(-c3ccncc3)nc3ccccc23)CC1` [Example 60, Ethyl {[trans-4-({[(2-pyridin-4-ylquinolin-4-yl)carbonyl]amino}methyl)cyclo-hexyl]methyl}carbamate], the pIC50 in test [1] was 5.50; in test [2] it was 5.74.

`CCOC(=O)NC[C@H]1CC[C@H](CNC(=O)c2cc(-c3ccc(C(N)=O)cc3)nc3ccccc23)CC1` [Example 61, Ethyl ({trans-4-[({[2-(4-carbamoylphenyl)quinolin-4-yl]carbonyl}amino)methyl]-cyclohexyl}methyl)carbamate]: the pIC50 in test [1] was 6.00; in test [2] it was 6.26.

`CCOC(=O)NC[C@H]1CC[C@H](CNC(=O)c2cc(-c3ccccc3)nc3ccccc23)CC1` [Example 62, Ethyl {[trans-4-({[(2-phenylquinolin-4-yl)carbonyl]amino}methyl)cyclohexyl]methyl}-carbamate]: the pIC50 was 5.51 in test [1] and 5.56 in test [2].

Take `CC(C)(C)OC(=O)NC[C@H]1CC[C@H](CNS(=O)(=O)c2cccc(-c3ccccc3)c2)CC1` [Example 63, tert-Butyl [(trans-4-{[(biphenyl-3-ylsulfonyl)amino]methyl}cyclohexyl)methyl]-carbamate]: the pIC50 was 5.34 in test [1] and 5.55 in test [2].

For the molecule `CC(C)(C)OC(=O)NC[C@H]1CC[C@H](CNS(=O)(=O)c2ccc(Br)c(Br)c2)CC1` [Example 64, tert-Butyl {[trans-4-({[(3,4-dibromophenyl)sulfonyl]amino}methyl)cyclohexyl]-methyl}carbamate], the pIC50 was under 4.70 in test [1] and 5.43 in test [2].

For the molecule `CC(C)(C)OC(=O)NC[C@H]1CC[C@H](CNS(=O)(=O)c2ccc(Cl)c(Cl)c2)CC1` [Example 65, tert-Butyl {[trans-4-({[(3,4-dichlorophenyl)sulfonyl]amino}methyl)cyclohexyl]methyl}-carbamate], the pIC50 in test [1] was under 4.70; in test [2] it was 5.41.

On to `CC(C)(C)OC(=O)NC[C@H]1CC[C@H](CNS(=O)(=O)c2cccc3cccnc23)CC1` [Example 66, tert-Butyl [(trans-4-{[(quinolin-8-ylsulfonyl)amino]methyl}cyclohexyl)methyl]-carbamate], for which the pIC50 in test [1] was 5.17; in test [2], 5.86.

As for `CC(C)(C)OC(=O)NC[C@H]1CC[C@H](CNS(=O)(=O)c2ccc(-c3ccccc3)cc2)CC1` [Example 67, tert-Butyl [(trans-4-{[(biphenyl-4-ylsulfonyl)amino]methyl}cyclohexyl)methyl]-carbamate], the pIC50 in test [1] is under 4.70; in test [2], 5.48.

Take `CC(C)c1ccc(S(=O)(=O)NC[C@H]2CC[C@H](CNC(=O)OC(C)(C)C)CC2)cc1` [Example 68, tert-Butyl {[trans-4-({[(4-isopropylphenyl)sulfonyl]amino}methyl)cyclohexyl]methyl}-carbamate]: the negative logarithm of the IC50 (pIC50) in test [1] is under 4.70; in test [2] it was 5.58.

For `Cc1nc(-c2ccc(S(=O)(=O)NC[C@H]3CC[C@H](CNC(=O)OC(C)(C)C)CC3)s2)cs1` [Example 70, tert-Butyl ({trans-4-[({[5-(2-methyl-1,3-thiazol-4-yl)-2-thienyl]sulfonyl}amino)-methyl]cyclohexyl}methyl)carbamate], the figures for the pIC50 in test [1] and in test [2] were under 4.70 and 5.55, respectively.

For the molecule `CC(=O)Nc1cccc2c(S(=O)(=O)NC[C@H]3CC[C@H](CNC(=O)OC(C)(C)C)CC3)cccc12` [Example 71, tert-Butyl {[trans-4-({[(5-acetamido-1-naphthyl)sulfonyl]amino}methyl)cyclohexyl]-methyl}carbamate], the pIC50 in test [1] was 4.77; in test [2], 5.61.

For `CC(C)(C)OC(=O)NC[C@H]1CC[C@H](CNS(=O)(=O)c2ccc(-c3ccno3)s2)CC1` [Example 72, tert-Butyl {[trans-4-({[(5-isoxazol-5-yl-2-thienyl)sulfonyl]amino}methyl)cyclo-hexyl]methyl}carbamate], the values for the pIC50 in test [1] and in test [2] were under 4.70 and 5.61, respectively.

For `CC(=O)Nc1ccc(S(=O)(=O)NC[C@H]2CC[C@H](CNC(=O)OC(C)(C)C)CC2)cc1` [Example 73, tert-Butyl {[trans-4-({[(4-acetamidophenyl)sulfonyl]amino}methyl)cyclohexyl]-methyl}carbamate], the negative logarithm of the IC50 (pIC50) in test [1] was under 4.70; in test [2] it was 5.30.

The record behind these values is US20090306133A1, “New Acetyl Coenzyme A Carboxylase (ACC) Inhibitors And Uses In Treatments Of Obesity And Diabetes Mellitus - 087” (ASTRAZENECA AB, priority 2007, published 2009).
